Counter-ions that a name gives are not always drawn.
Test: Pharmacokinetic study in rats
Details: for concentration at 60 min / concentration at 90 min / concentration at 120 min / concentration at 240 min / concentration at 360 min / concentration at 480 min / concentration at 720 min / concentration at 1440 min / concentration at 5 min / concentration at 15 min / concentration at 30 min: oral, 20 μmol/kg, intragastric 20 μmol/kg
Procedure: All stock solutions of the test compound were sonicated and heated to become clarified and formulated to a 25 mM solution with DMSO.
All samples were dosed at 20 μmol/kg.
The blood sample was centrifuged at 8000 rpm for 5 min, the plasma was collected in a centrifuge tube and stored at −20° C. for use.
Treatment of the plasma sample: the proteins in 50 μL plasma sample were precipitated with 200 μL acetonitrile containing internal standard (Propranolol (PRO), 2.5 ng/mL). Vortexed for 10 min, centrifuged at 6000 g for 10 min, the supernatant was taken and 5-fold diluted with the mobile phase, and the supernatant was injected into a 96-well plate for analysis.
flow rate: 0.3 mL/min; injection volume: 2 μL; column temperature 45° C. The gradient elution procedure was: […]
The ion source was an electrospray ionization source (Turbo Ionspray, ESI); the electrospray voltage was 5500V; the temperature was 500° C.; pressure of ion source gas 1 (N2) was 50 psi; pressure of ion source gas 2 (N2) was 50 psi; pressure of curtain gas (N2) 20 psi; pressure of collision gas (CAD) was Medium; scan time was 100 ms; positive ion mode detection; scan mode was multiple reaction monitoring (MRM), ion reaction and collision energy (CE) for quantitative analysis, declustering potential (DP) are shown in the following table: […]

[1] = SD (Sprague-Dawley), rat, plasma, Plasma concentration Mean, SD rats, mean of 3 rats
[2] = SD (Sprague-Dawley), rat, plasma, Plasma concentration Rat1, SD rats, Rat1
[3] = SD (Sprague-Dawley), rat, plasma, Plasma concentration Rat 2, SD rats, Rat 2
[4] = SD (Sprague-Dawley), rat, plasma, Plasma concentration Rat 3, SD rats, Rat 3
[5] = SD rats, intragastric, 20 umol/kg
[6] = SD, rat, plasma, Plasma concentration Mean, SD rats, mean of 3 rats
[7] = SD, rat, plasma, Plasma concentration Rat1, SD rats, Rat1
[8] = SD, rat, plasma, Plasma concentration Rat 2, SD rats, Rat 2
[9] = SD, rat, plasma, Plasma concentration Rat 3, SD rats, Rat 3

With `CNC(=O)c1ccc(-c2cnc3ncc(Cc4ccc5ncccc5c4)n3n2)cc1F` [INCB28060 hydrochloride] the concentration at 60 min [1] was 910 nM, the concentration at 90 min [1] was 730 nM and the concentration at 120 min [1] was 600 nM. It also gave a concentration at 240 min [1] of 430 nM, a concentration at 360 min [1] of 180 nM and a concentration at 480 min [1] of 80 nM. For the same compound, the concentration at 720 min [1] was 30 nM, the concentration at 1440 min [1] was 10 nM and the concentration at 5 min [2] was 15.3 nM. It also gave a concentration at 60 min [2] of 616 nM, a concentration at 90 min [2] of 394 nM and a concentration at 120 min [2] of 305 nM. It also gave a concentration at 240 min [2] of 465 nM, a concentration at 360 min [2] of 193 nM and a concentration at 480 min [2] of 88.5 nM. For the same compound, the concentration at 720 min [2] was 62.6 nM, the concentration at 1440 min [2] was 8.08 nM and the concentration at 5 min [3] was 42.5 nM. It also gave a concentration at 60 min [3] of 1210 nM, a concentration at 90 min [3] of 961 nM and a concentration at 120 min [3] of 725 nM. For the same compound, the concentration at 240 min [3] was 333 nM, the concentration at 360 min [3] was 148 nM and the concentration at 480 min [3] was 42 nM. It also gave a concentration at 720 min [3] of 13.1 nM, a concentration at 1440 min [3] of 6.99 nM and a concentration at 5 min [4] of 22.2 nM. For the same compound, the concentration at 60 min [4] was 897 nM, the concentration at 90 min [4] was 835 nM and the concentration at 120 min [4] was 758 nM. The concentration at 240 min [4] was 495 nM, the concentration at 360 min [4] was 211 nM and the concentration at 480 min [4] was 107 nM. It also gave a concentration at 720 min [4] of 25.7 nM, a concentration at 1440 min [4] of 15.6 nM and a Clearance [5] of 89 mL/min/kg. For the same compound, the Vss [5] was 24.325 L/kg, the Vz [5] was 35.978 L/kg and the thalf [5] was 283.79 min. For the same compound, the concentration at 5 min [6] was 30 nM, the concentration at 15 min [6] was 530 nM and the concentration at 30 min [6] was 1030 nM. The concentration at 15 min [7] was 399 nM, the concentration at 30 min [7] was 784 nM and the concentration at 15 min [8] was 732 nM. The concentration at 30 min [8] was 1320 nM, the concentration at 15 min [9] was 448 nM and the concentration at 30 min [9] was 990 nM. The AUC(0-t) (SD, rat, plasma, po, 20 umol/kg, AUC(0-t), SD rats, intragastric) was 3.73 µM·h, the AUC (SD, rat, plasma, po, 20 umol/kg, AUCextra, SD rats, intragastric) was 0.0715 µM·h and the AUC (SD, rat, plasma, po, 20 umol/kg, AUCtot, SD rats, intragastric) was 3.8 µM·h. The Cmax (SD, rat, plasma, po, 20 umol/kg, Cmax, SD rats, intragastric) was 1030 nM, the MRT (SD, rat, plasma, po, 20 umol/kg, MRT, SD rats, intragastric) was 4.53 h and the Tmax (SD, rat, plasma, po, 20 umol/kg, Tmax, SD rats, intragastric) was 0.5 h. For the same compound, the “exposure in rats (comparison in words)” value (rats, 20 μmol/kg intragastric) was “not as good as that of crystal form A of SPH1772 ditartrate and crystal form A of SPH1772”.

— US10344035B2, “Salt of quinolone compound, polymorphs thereof, preparation method therefor, composition, and applications” (SHANGHAI PHARMACEUTICALS HOLDING CO., LTD., priority 2015, dated 2019)
